Experimental data taken from patent US20020137929A1, “1 - (3-heterocyclylphenyl) isothiourea, -isourea, -guanidine and -amidine herbicidal agents” (Intellectual Property Department, BASF Aktiengesellschaft, priority 1998, published 2002).

Tests used:
[1] = test system: AMBEL (Ragweed, Common); assay: Preemergence herbicidal evaluation; format: in vivo, Ambrosia artemisifolia; conditions: rate 0.2500 kg/ha; rated 4-5 weeks after treatment
How it was run: (§1)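 Scores use a 0–9 visual scale covering stand, vigor, malformation, size and chlorosis relative to controls, rated four to five weeks after treatment. Before emergence, soil-planted seeds were sprayed with compound in aqueous acetone at roughly 0.0156–0.500 kg/ha and held in the greenhouse.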

[2] = test system: SAGPY (Arrowhead (Pygmaea)); assay: Postemergence weed control under flooded paddy conditions; format: in vivo, Sagittaria pygmaea; conditions: postemergence weeds, 3-4 weeks after treatment
How it was run: (§2)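 Injury ratings (0–9 scale covering stand, vigor, malformation, size, chlorosis and overall appearance versus control) were made three to four weeks after treatment. Test material, about 0.0313 to 0.500 kg/ha a.i. in 50/50 v/v aqueous/acetone, was added to flood water 1.5 to 3 cm deep over 3 to 5 cm weeds and 1.5 to 2.5 leaf rice.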

[3] = test system: ORYSAT (Rice, Tebonnet); assay: Preemergence herbicidal evaluation; format: in vivo, Oryza sativa, (L.) Tebonnet; conditions: rate 0.2500 kg/ha; rated 4-5 weeks after treatment
How it was run: as §1

[4] = test system: CYPSE (Flatsedge); assay: Preemergence weed control under flooded paddy conditions; format: in vivo, Cyperus serotinus; conditions: rated 3-4 weeks after treatment
How it was run: (§3)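 Silt loam, seeds in top 0.5 cm; flood held 1.5-3 cm; test cpd as acetone/water 50/50 into flood water, ~0.0313-0.500 kg/ha a.i.; greenhouse 3-4 wk; visual 0-9 score vs control.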

[5] = test system: GALAP (Galium); assay: Postemergence herbicidal evaluation; format: in vivo, Galium aparine; conditions: postemergence
How it was run: (§4)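 Scores (0–9) reflect plant stand, vigor, malformation, size, chlorosis and general appearance relative to control, read 4 to 5 weeks after treatment and averaged where tests were repeated. Application: about 0.0156–0.500 kg/ha sprayed at 40 psi onto two-week seedlings.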

[6] = test system: ORYSAT (Rice, Tebonnet); assay: Postemergence herbicidal evaluation; format: in vivo, Oryza sativa, (L.) Tebonnet; conditions: postemergence
How it was run: as §4

[7] = test system: GLXMAW (Soybean, Williams); assay: Preemergence herbicidal evaluation; format: in vivo, Glycine max, (L.) Merr. cv Williams; conditions: rate 0.2500 kg/ha; rated 4-5 weeks after treatment
How it was run: as §1

[8] = test system: CYPIR (Rice Flatsedge); assay: Postemergence weed control under flooded paddy conditions; format: in vivo, Cyperus iria; conditions: postemergence weeds, 3-4 weeks after treatment
How it was run: as §2

[9] = test system: CASOB (Sicklepod); assay: Postemergence herbicidal evaluation; format: in vivo, Cassia obtusifolia; conditions: postemergence
How it was run: as §4

[10] = test system: MOOVA (Monochoria); assay: Preemergence weed control under flooded paddy conditions; format: in vivo, Monochoria vaginalis; conditions: rated 3-4 weeks after treatment
How it was run: as §3

[11] = test system: CHEAL (Lambsquarters, Common); assay: Postemergence herbicidal evaluation; format: in vivo, Chenopodium album; conditions: postemergence
How it was run: as §4

[12] = test system: CYPSE (Flatsedge); assay: Postemergence weed control under flooded paddy conditions; format: in vivo, Cyperus serotinus; conditions: postemergence weeds, 3-4 weeks after treatment
How it was run: as §2

[13] = test system: SETVI (Foxtail, Green); assay: Preemergence herbicidal evaluation; format: in vivo, Setaria viridis; conditions: rate 0.2500 kg/ha; rated 4-5 weeks after treatment
How it was run: as §1

[14] = test system: ZEAMX (Corn, Field); assay: Postemergence herbicidal evaluation; format: in vivo, Zea mays; conditions: postemergence
How it was run: as §4

SMILES: CCOC(=O)CN1C(=O)C(=Cc2ccc(F)cc2)SC1=Nc1cc(-n2c(=O)cc(C(F)(F)F)n(C)c2=O)c(F)cc1Cl [Compound 21, Ethyl 2-{{2-chloro-5-[3,6-dihydro-3-methyl-2,6-dioxo-4-(trifluoromethyl)-1(2H)-pyrimidinyl]-4-fluorophenyl}imino}-5-(p-fluorobenzylidene)-4-oxo-3-thiazolidineacetate]
- AMBEL preemergence herbicidal rating [1]: 0.0
- Herbicidal rating SAGPY ([2]; rate 0.1160 kg/ha): 0.0
- Herbicidal rating SAGPY ([2]; rate 0.2310 kg/ha): 0.0
- Herbicidal rating SAGPY ([2]; rate 0.4630 kg/ha): 0.0
- ORYSAT preemergence herbicidal rating [3]: 0.0
- Herbicidal rating CYPSE ([4]; 0.1160 kg/ha): 0.0
- Herbicidal rating CYPSE ([4]; 0.2310 kg/ha): 0.0
- Herbicidal rating CYPSE ([4]; 0.4630 kg/ha): 0.0
- GALAP herbicidal rating ([5]; rate 0.0158 kg/ha): 2.0
- GALAP herbicidal rating ([5]; rate 0.0315 kg/ha): 2.0
- GALAP herbicidal rating ([5]; rate 0.0630 kg/ha): 4.0
- ORYSAT herbicidal rating ([6]; rate 0.0158 kg/ha): 2.0
- ORYSAT herbicidal rating ([6]; rate 0.0315 kg/ha): 2.5
- ORYSAT herbicidal rating ([6]; rate 0.0630 kg/ha): 2.5
- GLXMAW preemergence herbicidal rating [7]: 0.0
- Herbicidal rating CYPIR ([8]; rate 0.1160 kg/ha): 0.0
- Herbicidal rating CYPIR ([8]; rate 0.2310 kg/ha): 0.0
- Herbicidal rating CYPIR ([8]; rate 0.4630 kg/ha): 0.0
- CASOB herbicidal rating ([9]; rate 0.0158 kg/ha): 0.0
- CASOB herbicidal rating ([9]; rate 0.0315 kg/ha): 0.0
- CASOB herbicidal rating ([9]; rate 0.0630 kg/ha): 0.0
- Herbicidal rating MOOVA ([10]; 0.1160 kg/ha): 0.0
- Herbicidal rating MOOVA ([10]; 0.2310 kg/ha): 0.0
- Herbicidal rating MOOVA ([10]; 0.4630 kg/ha): 0.0
- CHEAL herbicidal rating ([11]; rate 0.0158 kg/ha): 2.0
- CHEAL herbicidal rating ([11]; rate 0.0315 kg/ha): 5.0
- CHEAL herbicidal rating ([11]; rate 0.0630 kg/ha): 7.0
- Herbicidal rating CYPSE ([12]; rate 0.1160 kg/ha): 0.0
- Herbicidal rating CYPSE ([12]; rate 0.2310 kg/ha): 0.0
- Herbicidal rating CYPSE ([12]; rate 0.4630 kg/ha): 0.0
- SETVI preemergence herbicidal rating [13]: 0.0
- ZEAMX herbicidal rating ([14]; rate 0.0158 kg/ha): 4.0
- ZEAMX herbicidal rating ([14]; rate 0.0315 kg/ha): 4.0
- ZEAMX herbicidal rating ([14]; rate 0.0630 kg/ha): 4.5
